# Source: patent US8377870B2, “Antimicrobial aqueous solution and its preparation method” (Dentrochemical Co., Ltd., priority 2008, dated 2013)
# Key:
# [1] = system: Pseudomonas aeruginosa, JCM 5961; assay: growth curve of Pseudomonas by optical density measuring method, liquid culture (½ TS medium); format: cell-based
# Protocol: 100 mg of a sucrose monolaurate (Ryoto Sugar Ester L1695 produced by Mitsubishi-Kagaku Foods Corporation) was dissolved in 1 liter of a sterilized deionized water, the resultant solution was heated to 50° C., 50 mg of monolaurin (Taiyo Kagaku Co., Ltd.) was added thereinto followed by stirring, the dissolution thereof was then confirmed, and the resultant solution was subsequently cooled down to a room temperature. Added into the solution was 50 mg of an ε-polylysine product (50% dextrin powder produced by Chisso Corporation; containing 50% of ε-polylysine bromate and 50% of dextrin), followed by dissolution thereof, to obtain an antimicrobial aqueous solution. This antimicrobial aqueous solution contained 25 μg/ml of the ε-polylysine, 50 μg/ml of the monolaurin, and 100 μg/ml of the sucrose monolaurate. Here, used as the monolaurin was that recrystallized by means of hexane, because a monolaurin of high purity was required. […]
# Pseudomonas = assay: successive 2-fold dilution in test tubes, visual observation of growth of bacteria; format: cell-based; set-up: key to growth of bacteria, Dilution rate 0 / growth of bacteria, Dilution rate ×2 / growth of bacteria, Dilution rate ×4: visually observing a growth of bacteria, and the observation result is shown by marks of + and −; visually observing a growth of bacteria, and the observation result is shown by marks of + and −
# Protocol: Further, successive 2-fold dilutions […] media of ½ concentration; 5 ml of the applicable diluted solution at each fold was separately poured into dual test tubes, for preparation; while simultaneously preparing diluted solutions of ε-polylysine only in test tubes as a comparative test, in the same manner as the above; and one droplet of an inoculum of Pseudomonas was inoculated into each diluted solution, followed by shaking and culturing at 37° C. for 18 hours. Judgment of each activity was conducted by visually observing a growth of bacteria, and the observation result is shown by marks of + and −.
# [2] = acute toxicity; cited from earlier work
# bacteria and fungi = assay: growth of bacteria and fungi with diluted ε-polylysine by itself; format: cell-based; conditions: ε-polylysine by itself diluted down to about 6.25 μg/ml
# [3] = 37° C. for 18 hours, start: ε-polylysine only 50 μg/ml, or ε-polylysine 8 μg/ml (fix) + diglycerol monolaurate 50 μg/ml
substance,measurement,setting,value
ε-polylysine,"growth of bacteria (growth curve, FIG. 2)","[1]; 10 μg/ml of each component named in the sample code, compared with control without additive",growth of bacteria to the similar level as a control
same,"lapse of time after which growth of bacteria set in (growth curve, FIG. 1)","[1]; sample codes give μg/ml (M monolaurin, PL ε-polylysine, S sucrose monolaurate)",12 h
same,"growth of bacteria, Dilution rate 0",Pseudomonas; [3],−
same,"growth of bacteria, Dilution rate ×2",Pseudomonas; [3],−
same,"growth of bacteria, Dilution rate ×4",Pseudomonas; [3],−
same,dilutions in which growth of bacteria was found,"Pseudomonas; ε-polylysine only, start 50 μg/ml, successive 2-fold dilution",≥ 8 fold
same,LD50,[2],> 10000 mg/kg
same,effect on growth of bacteria and fungi,bacteria and fungi,promote growth of bacteria and fungi
